Laboratory results: patent publication US20160045463A1, “USE OF METALLOPROTEASE INHIBITORS IN THE TREATMENT OF POLYCYSTIC LIVER DISEASES” (UNIVERSIDAD DE SALAMANCA, priority 2012, published 2016)

Assays:
[1] = test system: polycystic human cholangiocytes; assay: Metalloproteolytic activity of culture supernatants, ES001 fluorogenic peptide cleavage; format: cell-based; conditions: for metalloproteolytic activity in presence of stimulus: polycystic cholangiocytes vs basal, Table 3 final concentration: IL-6, IL-8 50 ng/ml, 17β-estradiol 1 nM/ml, VEGF, EGF, ENA-78, GRO-α 10 ng/ml, HGF 20 ng/ml, FIG. 9
Procedure: (§1) Metalloproteolytic or metalloprotease activity was measured in supernatants of cultures of normal human cholangiocytes and polycystic human cholangiocytes by an assay based on the cleavage of the ES001 fluorogenic synthetic peptide (R&D Systems Minneapolis, Minn., USA) that emits fluorescence proportional to metalloproteolytic activity. The substrate Mca-Pro-Leu-Gly-Leu-Dpa-Ala-Arg-NH2 [Mca: (7-Methoxycoumarin-4-yl)acetyl, Dpa: N-3-(2,4-Dinitrophenyl)-L-2,3-diaminopropionyl] (Knight C G, et al. FEBS Letters 1992; 296:263) is lysed between glycine and leucine by the action of the MMPs, especially MMP-1 (collagenase 1), MMP-2 (gelatinase A), MMP-7 (matrilysin), MMP-8 (collagenase 2), MMP-9 (gelatinase B), MMP-12 (macrophage elastase), MMP-13 (collagenase 3), MMP-14 (MT1-MMP), MMP-15 (MT2-MMP) and MMP-16 (MT3-MMP).
(§2) The basal metalloproteolytic activity of normal human cholangiocyte and polycystic human cholangiocytes cultures was determined by trypsinising the contents of 250 ml flasks and counting the number of cells in an inverted optical microscope using a Neubauer camera and a ½ dilution of the cell solution with trypan blue (Sigma). Next, 300,000 cells were seeded in each well of a 6-well plate and incubated with enriched DMEM/F-12 medium for 24 hours. After this time, the cells were washed with PBS and the culture medium changed for 2 ml of quiescent medium (DMEM/F-12, 1% FBS and 1% P/S) and incubated for 6 hours at 37° C./5% CO2. The supernatant was collected from each well and centrifuged at 4° C. for 10 minutes at 1,500 rpm to remove the dead cells present in the supernatant. The supernatant was concentrated 50 times using a 15 kDa (Millipore) Amicon Ultra concentrator. Next the concentrated supernatant was incubated for 2 hours at 37° C. with the ES001 fluorogenic peptide at a final concentration of 10 μM. Also, GM6001 (a global MMP inhibitor) and aprotinin (a global inhibitor of serine proteases) (both from Sigma-Aldrich) were used as controls of the specificity of the analysis of MMP activity in the assay. Recombinant MMP-10 (kindly provided by Dr. José Antonio Rodriguez Garcia, Laboratorio de Ateroesclerosis e Inflamación del CIMA, Universidad de Navarra) was used as a positive control and DMEM/F-12 medium without serum was used as the negative control. The fluorescence determination was kinetically measured in a Spectra MAX GeminiXS (Molecular Devices Sunnyvale, Calif., USA) spectrophotometer at excitation-emission wavelengths of 320-405 nm. The fluorescence intensity emitted by the culture medium was extracted from the metalloproteolytic activity values. The metalloproteolytic activity was calculated from the tangent to the curve of the fluorescence values using at least six different points over time for each type of cell and condition.
(§3) To analyse the effect of various stimuli on the metalloproteolytic activity of normal and polycystic human cholangiocytes cultures, a protocol similar to that described before in Example 2 was followed, but in this case the incubation of the cells was with quiescent medium (i.e. DMEM/F12, […]) in the presence of the corresponding stimulus (Table 3). Next, the same procedure as described for the analysis of basal metalloproteolytic activity was followed as described in Example 2.
(§4) Taking into account that: i) basal activity of polycystic human cholangiocytes in culture is greater than that of normal human cholangiocytes and ii) that IL-6 and IL-8 increased the metalloproteolytic activity of normal and polycystic human cholangiocytes, the role of these two cytokines on metalloproteolytic hyperactivity of polycystic human cholangiocytes using antibodies against the receptors of IL-6 (IL6R) and/or IL-8 (CXCR1) was investigated. […]

[2] = test system: normal human cholangiocytes; assay: as above; format: cell-based; conditions: for metalloproteolytic activity in presence of stimulus: normal cholangiocytes vs basal, Table 3 final concentration: IL-6, IL-8 50 ng/ml, 17β-estradiol 1 nM/ml, VEGF, EGF, ENA-78, GRO-α 10 ng/ml, HGF 20 ng/ml, FIG. 9
Procedure: as §1, §2, §3, §4

| Compound | metalloproteolytic activity in presence of stimulus [1] | metalloproteolytic activity in presence of stimulus [2] | basal metalloproteolytic activity in presence of inhibitor ([1]; polycystic cholangiocytes, 13-cis-retinoic acid 10 μM/ml or Marimastat 200 μM/ml, p<0.01, FIG. 21) | basal metalloproteolytic activity in presence of inhibitor ([2]; normal cholangiocytes, 13-cis-retinoic acid 10 μM/ml or Marimastat 200 μM/ml, p<0.01, FIG. 21) |
| --- | --- | --- | --- | --- |
| GROα: growth-regulated oncogene a | did not induce any change | did not induce any change | – | – |
| EGF: epidermal growth factor | did not induce any change | did not induce any change | – | – |
| VEGF | did not induce any change | did not induce any change | – | – |
| ENA-78: epithelial neutrophil-activating peptide 78 | did not induce any change | did not induce any change | – | – |
| HGF: hepatocyte growth factor | did not induce any change | did not induce any change | – | – |
| CC1=C(/C=C/C(C)=C/C=C/C(C)=C\C(=O)O)C(C)(C)CCC1 [13-cis-retinoic acid] | – | – | inhibited | inhibited |
